Measurements published in ChEMBL document CHEMBL1201862, “PubChem BioAssay data set” (2004).
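Dose response: 5 concentrations. Exposure: 48 h. Format: 96-well plates. Endpoint: linear interpolation; highest concentration if not reached. Here, GI50 denotes the concentration required for 50% inhibition of growth.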 Calls of active or inactive are those of the source. Rule as the data show it: active = GI50 up to about 1.1 µM and inactive = higher.

Experiments:
Test in all cases: growth of human tumour cells (NCI), 48 h
[1] = test system: CAKI-1
[2] = test system: A549
[3] = test system: SF-295
[4] = test system: NCI-H23
[5] = test system: MCF7
[6] = test system: 786-0
[7] = test system: EKVX
[8] = test system: LOX IMVI
[9] = test system: PC-3
[10] = test system: M14
[11] = test system: OVCAR-4
[12] = test system: MDA-N
[13] = test system: UACC-62
[14] = test system: HOP-62
[15] = test system: UO-31
[16] = test system: NCI-H226
[17] = test system: SW-620
[18] = test system: TK-10
[19] = test system: CCRF-CEM
[20] = test system: COLO 205

Measured: GI50

CN1CCN(CCCN2c3ccccc3Sc3ccc(C(F)(F)F)cc32)CC1
inactive: [1] 9.64 µM | [2] 10.2 µM | [3] 5.79 µM | [4] 11.1 µM | [5] 4.61 µM | [6] 4.14 µM | [7] 10.6 µM | [8] 2.73 µM | [9] 4.58 µM | [10] 1.72 µM | [11] 8.81 µM | [12] 3.2 µM | [13] 2.06 µM | [14] 11.3 µM | [15] 6.32 µM | [16] 13.2 µM

CO/N=C(\C(=O)O/C(=N/C1CCCCC1)NC1CCCCC1)c1csc(NC(c2ccccc2)(c2ccccc2)c2ccccc2)n1
inactive: [1] > 10 µM | [2] > 10 µM | [3] > 10 µM | [4] > 10 µM | [5] > 10 µM | [6] > 10 µM | [7] > 10 µM | [8] 9.46 µM | [9] > 10 µM | [10] > 10 µM | [11] > 10 µM | [12] > 10 µM | [17] > 10 µM | [14] > 10 µM | [15] > 10 µM | [18] > 10 µM | [19] > 10 µM | [20] > 10 µM | [16] > 10 µM

C=CCCCCCCCCCOC1C=CC(O)C(CO)O1 (stereo not given)
inactive: [1] 56 µM | [2] 42.4 µM | [3] 66.2 µM | [4] 28.2 µM | [5] 41.4 µM | [6] 44.5 µM | [7] 39.2 µM | [8] 31.6 µM | [9] 26.5 µM | [10] 18.6 µM | [11] 46.6 µM | [12] 33.3 µM | [17] 43.5 µM | [13] 27.8 µM | [14] 50.5 µM | [15] 35.8 µM | [18] 36.7 µM | [20] 37.1 µM | [16] > 100 µM

CC(=O)OC(Cc1c(O)c2c(C)cccc2oc1=O)C(C)(C)O (stereo not given)
inactive: [1] > 100 µM | [2] > 100 µM | [3] > 100 µM | [4] > 100 µM | [5] > 100 µM | [6] > 100 µM | [7] > 100 µM | [8] > 100 µM | [9] 51.4 µM | [10] > 100 µM | [12] > 100 µM | [17] > 100 µM | [13] 77.4 µM | [14] > 100 µM | [15] > 100 µM | [18] > 100 µM | [19] 88.5 µM | [20] > 100 µM | [16] > 100 µM

Cc1nc2sc3cccc(Cl)c3n2c(=O)c1/N=N/c1ccc(Cl)cc1
inactive: [1] > 100 µM | [2] 77.8 µM | [3] 53.1 µM | [4] 99.8 µM | [5] 87.5 µM | [6] > 100 µM | [7] 38.5 µM | [8] 58.1 µM | [9] 51.2 µM | [10] > 100 µM | [11] > 100 µM | [12] > 100 µM | [17] 66.5 µM | [14] 75.2 µM | [18] > 100 µM | [19] > 100 µM | [20] 94.6 µM | [16] 42.4 µM

CC(C)(O)/C1=C/C=C/CCCCCCCCCC1
inactive: [1] > 100 µM | [3] > 100 µM | [4] > 100 µM | [5] > 100 µM | [7] > 100 µM | [8] > 100 µM | [9] 87.1 µM | [10] > 100 µM | [12] > 100 µM | [17] > 100 µM | [13] 90.2 µM | [14] > 100 µM | [15] 51.9 µM | [18] > 100 µM | [19] 30.3 µM | [20] > 100 µM | [16] > 100 µM

C=C(C)COC1CCCCO1 (stereo not given)
inactive: [1] > 100 µM | [2] > 100 µM | [3] > 100 µM | [4] > 100 µM | [5] > 100 µM | [6] > 100 µM | [7] > 100 µM | [8] > 100 µM | [9] > 100 µM | [10] > 100 µM | [12] > 100 µM | [17] > 100 µM | [13] > 100 µM | [14] > 100 µM | [15] > 100 µM | [18] > 100 µM | [19] > 100 µM | [20] > 100 µM | [16] > 100 µM

Cc1cc(S(=O)(=O)Nc2nc(N)nc(N(C)C)n2)c(SCC(=O)O)cc1Cl
inactive: [1] > 10 µM | [2] > 10 µM | [3] > 10 µM | [4] > 10 µM | [5] > 10 µM | [6] > 10 µM | [7] > 10 µM | [8] > 10 µM | [9] > 10 µM | [10] > 10 µM | [11] > 10 µM | [12] > 10 µM | [17] > 10 µM | [14] > 10 µM | [15] > 10 µM | [18] > 10 µM | [19] > 10 µM | [20] > 10 µM | [16] > 10 µM

CC(=O)OC(OC(C)=O)c1ccc2ccc3cccc4ccc1c2c34
inactive: [1] 9.04 µM | [2] > 100 µM | [3] 18.7 µM | [4] 18.7 µM | [5] 23.6 µM | [6] 36.1 µM | [7] 27.4 µM | [8] 16 µM | [9] 28.6 µM | [10] 24.8 µM | [12] 15.2 µM | [13] 12.7 µM | [15] 22.3 µM | [18] 9.25 µM | [19] 42.6 µM | [20] 25.1 µM | [16] 3.08 µM

C#CC(O)Cc1ccc(OC)c2occc12 (stereo not given)
inactive: [1] > 100 µM | [2] > 100 µM | [3] > 100 µM | [4] > 100 µM | [5] > 100 µM | [6] > 100 µM | [7] 69.3 µM | [8] > 100 µM | [9] > 100 µM | [10] > 100 µM | [11] > 100 µM | [12] > 100 µM | [17] > 100 µM | [13] > 100 µM | [14] > 100 µM | [15] > 100 µM | [18] > 100 µM | [20] > 100 µM | [16] > 100 µM

C=C1C(=O)O[C@H]2C[C@@]3(COC(C)=O)C=COC=C(COC(=O)C(C)C)C3CC12 (stereo not given in full)
inactive: [1] 65.2 µM | [2] > 100 µM | [3] > 100 µM | [4] > 100 µM | [5] 52.4 µM | [6] > 100 µM | [7] > 100 µM | [8] 45.2 µM | [9] 35.3 µM | [12] 45.7 µM | [17] 46.1 µM | [13] 13.2 µM | [14] > 100 µM | [15] > 100 µM | [18] > 100 µM | [19] 24 µM | [20] 61.1 µM | [16] > 100 µM
